Data taken from ChEMBL document CHEMBL1134192, “Targeting RNA with peptidomimetic oligomers in human cells” (Bioorg Med Chem Lett, 2001).

Species: Homo sapiens
Test: Concentration that inhibits transcriptional activation of Tat protein in human cells
Type: functional, cell-based

| Compound | IC50 |
| --- | --- |
| NCCCC[C@H](CNC(=O)N[C@H](CCCCN)CNC(=O)N[C@H](CCCN=C(N)N)CNC(=O)N[C@H](CCCN=C(N)N)CNC(=O)N[C@H](CCC(N)=O)CNC(=O)N[C@H](CCCN=C(N)N)CNC(=O)N[C@H](CCCN=C(N)N)CNC(=O)N[C@H](CCCN=C(N)N)CNC(=O)[C@@H](N)Cc1ccc(O)cc1)NC(=O)NC[C@@H](CCCN=C(N)N)NC(=O)NCCNC(N)=O | 1000 nM |
| N=C(N)NCCC[C@@H](COC(=O)N[C@@H](CCCCN)COC(=O)N[C@@H](CCCCN)COC(=O)N[C@@H](CCCN=C(N)N)COC(=O)N[C@@H](CCCN=C(N)N)COC(=O)N[C@@H](CCC(N)=O)COC(=O)N[C@@H](CCCN=C(N)N)COC(=O)N[C@@H](CCCN=C(N)N)COC(=O)N[C@@H](CCCN=C(N)N)C(=O)O)NC(=O)OCCNC(=O)[C@@H](N)Cc1ccc(O)cc1 | 500 nM |
